Reference: patent publication US9968565B2, “Method for protection and improvement of liver health with meso-zeaxanthin compositions” (OMNIACTIVE HEALTH TECHNOLOGIES LIMITED, priority 2015, dated 2018)

System: HepG2 cells
Experiment: In vitro fatty liver model, lipid content in oleic acid-treated HepG2 hepatocytes (Adipored staining)
Format: cell-based
Details: HepG2, 1.5 mM Oleic Acid + 100 uM
Method: HepG2 cells were seeded at a density of 5×10^4 cells/mL in 24 well plates and cultured to 100% confluency. Once 100% confluent, HepG2 Growth Media (ATCC-formulated Eagle's Minimum Essential Media (EMEM) 500 mL+10% FBS-50 mL+1% pen/strep antibiotic-5 mL) was […] fetal bovine serum (FBS) Free Growth Media (1 mL per well) for 24 hours. Following 24 hour FBS-free conditions, cells were treated with differing concentrations of Oleic Acid (0.5, 1.0, 1.5, 2.0 mM; Sigma O3008) to induce fatty liver conditions. From preliminary Adipored Staining data, 1.5 mM Oleic Acid (OA) was deemed the most appropriate concentration of OA to induce maximum steatosis (accumulation of large vacuoles of triglyceride fat in liver cells—thus it is abnormal retention of lipids within a cell) while remaining non-cytotoxic.

Question: `C[C@@H]1O[C@@H](OC[C@H]2O[C@@H](Oc3c(-c4ccc(O)c(O)c4)oc4cc(O)cc(O)c4c3=O)[C@H](O)[C@@H](O)[C@@H]2O)[C@H](O)[C@H](O)[C@H]1O` [Rutin] was tested. Which “% Decrease in Lipid Content” value did it give?
Answer: Its value is 22%.

Question: And the “Lipid Content” value?
Answer: The value was 23088.67.
